Source: US10875851B2, “Factor XIIa inhibitors” (Merck Sharp & Dohme Corp., priority 2016, dated 2020)

Target: human Factor XIIa (Homo sapiens (Human), UniProt P00748)
Experiment: Factor XIIa Assay
Assay type: biochemical
Details: purified human Factor XIIa 500 pM; substrate n-Acetyl-Lys-Pro-Arg-AFC 100 μM; pH 7.4; read-out: FXIIa IC50
Outline: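 Purified human FXIIa at 500 pM final with 100 μM n-Acetyl-Lys-Pro-Arg-AFC in 50 mM HEPES, 150 mM NaCl, 5 mM CaCl2, 0.1% PEG 8000, pH 7.4, at room temperature or 37° C. Initial fluorogenic hydrolysis rates measured after enzyme–inhibitor equilibration; IC50 taken where Vi=Vo/2.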

human Factor XIIa, sequence (P00748 373-615): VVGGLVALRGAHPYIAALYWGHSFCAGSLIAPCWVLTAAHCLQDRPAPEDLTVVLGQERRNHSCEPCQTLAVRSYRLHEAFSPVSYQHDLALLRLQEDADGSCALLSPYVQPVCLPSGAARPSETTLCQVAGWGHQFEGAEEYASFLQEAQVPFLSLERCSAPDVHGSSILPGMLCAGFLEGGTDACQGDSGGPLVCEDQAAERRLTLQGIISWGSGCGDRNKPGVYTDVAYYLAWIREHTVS

IC50 [nM]	SMILES
5.7	CN(C)CCCC[C@H](C(=O)N1CCN(C2=NC(C)(C)C(c3ccccc3)O2)C[C@H]1C(=O)NCc1ccc2[nH]cc(Cl)c2c1)N(C)C (stereo partly drawn) [Example 146, (2S)-N-[(3-chloro-1H-indol-5-yl)methyl]-4-(4,4-dimethyl-5-phenyl-4,5-dihydro-1,3-oxazol-2-yl)-1-(N^2,N^2,N^6,N^6-tetramethyl-D-lysyl)piperazine-2-carboxamide]
12.7	CN(C)CCCC[C@H](C(=O)N1CCN(C2=NC(C)(C)C(c3ccccc3)O2)C[C@H]1C(=O)NCc1ccc(CN)c(F)c1)N(C)C (stereo partly drawn) [Example 148, (2S)-N-[4-(aminomethyl)-3-fluorobenzyl]-4-(4,4-dimethyl-5-phenyl-4,5-dihydro-1,3-oxazol-2-yl)-1-(N^2,N^2,N^6,N^6-tetramethyl-D-lysyl)piperazine-2-carboxamide]
34.2	C[C@@H]1N=C(N2CCN(C(=O)[C@@H](CC3CCN(C4CCC(C(N)=O)CC4)CC3)NC3CCC(C(N)=O)CC3)[C@H](C(=O)NCc3cccs3)C2)O[C@H]1c1ccccc1 (stereo partly drawn) [Example 182, (2S)-1-{N-(4-carbamoylcyclohexyl)-3-[1-(4-carbamoylcyclohexyl)piperidin-4-yl]-D-alanyl}-4-[(4S,5S)-4-methyl-5-phenyl-4,5-dihydro-1,3-oxazol-2-yl]-N-(thiophen-2-ylmethyl)piperazine-2-carboxamide]
29.7	CN(C)CCCC[C@@H](NC1CCCCC1)C(=O)N1CCN(C(=O)CC2CCCC2)C[C@H]1C(=O)NCc1cccs1 [Example 99, (2S)-1-(N^2-cyclohexyl-N^6,N^6-dimethyl-D-lysyl)-4-(cyclopentylacetyl)-N-(thiophen-2-ylmethyl)piperazine-2-carboxamide]
7	C[C@@H]1N=C(N2CCN(C(=O)[C@@H](CCCCNS(C)(=O)=O)NC3CCCCC3)[C@H](C(=O)NCc3cccs3)C2)O[C@H]1c1ccccc1 [Example 123, (2S)-1-[N^2-cyclohexyl-N^6-(methylsulfonyl)-D-lysyl]-4-[(4S,5S)-4-methyl-5-phenyl-4,5-dihydro-1,3-oxazol-2-yl]-N-(thiophen-2-ylmethyl)piperazine-2-carboxamide]
52.4	CN(C)CCCC[C@H](C(=O)N1CCN(C2=NC(C)(C)C(c3ccccc3)O2)C[C@H]1C(=O)NCc1cccc(Cl)c1)N(C)C (stereo partly drawn) [Example 139, (2S)-N-(3-chlorobenzyl)-4-(4,4-dimethyl-5-phenyl-4,5-dihydro-1,3-oxazol-2-yl)-1-(N^2,N^2,N^6,N^6-tetramethyl-D-lysyl)piperazine-2-carboxamide]
17.8	C[C@@H]1N=C(N2CCN(C(=O)[C@@H](CCCCNS(C)(=O)=O)NC3CCCCC3)[C@H](C(=O)NCc3cccs3)C2)O[C@H]1c1cccc(C#N)c1 [Example 116, (2S)-4-[(4S,5S)-5-(3-cyanophenyl)-4-methyl-4,5-dihydro-1,3-oxazol-2-yl]-1-[N^2-cyclohexyl-N^6-(methylsulfonyl)-D-lysyl]-N-(thiophen-2-ylmethyl)piperazine-2-carboxamide]
22	C[C@@H]1N=C(N2CCN(C(=O)[C@H](N)CCCCN3CCCCC3)[C@H](C(=O)NCc3cccc(Cl)c3)C2)O[C@H]1c1ccccc1 [Example 161, (2S)-N-(3-chlorobenzyl)-4-[(4S,5S)-4-methyl-5-phenyl-4,5-dihydro-1,3-oxazol-2-yl]-1-(6-piperidin-1-yl-D-norleucyl)piperazine-2-carboxamide]
6.6	C[C@@H]1N=C(N2CCN(C(=O)[C@@H](CCCCN(C)C)NC3CCC(CN)CC3)[C@H](C(=O)NCc3cccs3)C2)O[C@H]1c1ccccc1 (stereo partly drawn) [Example 133, (2S)-1-{N^2-[4-(aminomethyl)cyclohexyl]-N^6,N^6-dimethyl-D-lysyl}-4-[(4S,5S)-4-methyl-5-phenyl-4,5-dihydro-1,3-oxazol-2-yl]-N-(thiophen-2-ylmethyl)piperazine-2-carboxamide]
0.6	C[C@@H]1N=C(N2CCN(C(=O)[C@@H](CCCCN3CCCCC3)NC3CCC(CN)CC3)[C@H](C(=O)NCc3ccc4[nH]cc(Cl)c4c3)C2)O[C@H]1c1ccccc1 (stereo partly drawn) [Example 172, (2S)-1-{N-[4-(aminomethyl)cyclohexyl]-6-piperidin-1-yl-D-norleucyl}-N-[(3-chloro-1H-indol-5-yl)methyl]-4-[(4S,5S)-4-methyl-5-phenyl-4,5-dihydro-1,3-oxazol-2-yl]piperazine-2-carboxamide]
0.8	C[C@@H]1N=C(N2CCN(C(=O)[C@@H](CCCCN(C)C)NC3CCC4(CC3)CCN(Cc3ccccc3)C4)[C@H](C(=O)NCc3cccs3)C2)O[C@H]1c1ccccc1 (stereo partly drawn) [Example 135, (2S)-1-[N^2-(2-benzyl-2-azaspiro[4.5]dec-8-yl)-N^6,N^6-dimethyl-D-lysyl]-4-[(4S,5S)-4-methyl-5-phenyl-4,5-dihydro-1,3-oxazol-2-yl]-N-(thiophen-2-ylmethyl)piperazine-2-carboxamide]
17.1	C[C@H]1N=C(N2CCN(C(=O)[C@@H](CC3CCCCC3)NC3CCCCC3)[C@H](C(=O)NCc3cccs3)C2)O[C@H]1c1ccccc1 [Example 114, (2S)-1-(N,3-dicyclohexyl-D-alanyl)-4-[(4R,5S)-4-methyl-5-phenyl-4,5-dihydro-1,3-oxazol-2-yl]-N-(thiophen-2-ylmethyl)piperazine-2-carboxamide]
19	CC1(C)N=C(N2CCN(C(=O)[C@@H](CC3CCCCC3)NC3CCCCC3)[C@H](C(=O)NCc3cccs3)C2)OC1c1ccccc1 (stereo partly drawn) [Example 140, (2S)-1-(N,3-dicyclohexyl-D-alanyl)-4-(4,4-dimethyl-5-phenyl-4,5-dihydro-1,3-oxazol-2-yl)-N-(thiophen-2-ylmethyl)piperazine-2-carboxamide]
11.9	CN(C)CCCC[C@H](C(=O)N1CCN(C(=O)Cc2cccc3c2CCNC3)C[C@H]1C(=O)NCc1cccs1)N(C)C1CCC2(CC1)CCN(Cc1ccccc1)C2 (stereo partly drawn) [Example 96, (2S)-1-[N^2-(2-benzyl-2-azaspiro[4.5]dec-8-yl)-N^2,N^6,N^6-trimethyl-D-lysyl]-4-(1,2,3,4-tetrahydroisoquinolin-5-ylacetyl)-N-(thiophen-2-ylmethyl)piperazine-2-carboxamide]
8.4	C[C@@H]1N=C(N2CCN(C(=O)[C@H](N)CCCCN3CCCCC3)[C@H](C(=O)NCc3ccc4[nH]cc(Cl)c4c3)C2)O[C@H]1c1ccccc1 [Example 162, (2S)-N-[(3-chloro-1H-indol-5-yl)methyl]-4-[(4S,5S)-4-methyl-5-phenyl-4,5-dihydro-1,3-oxazol-2-yl]-1-(6-piperidin-1-yl-D-norleucyl)piperazine-2-carboxamide]

SMILES	IC50 [nM]
CC[C@@H](NC1CCC2(CC1)CCN(Cc1ccccc1)C2)C(=O)N1CCN(C(=O)Oc2ccc(C)c(C)c2Cl)C[C@H]1C(=O)NCc1ccc(CN)c(OC)c1 (stereo partly drawn) [Example 107, 2-chloro-3,4-dimethylphenyl (3S)-3-{[4-(aminomethyl)-3-methoxybenzyl]carbamoyl}-4-{(2R)-2-[(2-benzyl-2-azaspiro[4.5]dec-8-yl)amino]butanoyl}piperazine-1-carboxylate]	14
CS(=O)(=O)NCCCC[C@@H](NC1CCC2(CC1)CCN(Cc1ccccc1)C2)C(=O)N1CCN(C(=O)Oc2ccccc2Cl)C[C@H]1C(=O)NCc1cccs1 (stereo partly drawn) [Example 54, 2-chlorophenyl (3S)-4-[N^2-(2-benzyl-2-azaspiro[4.5]dec-8-yl)-N~6~- (methylsulfonyl)-D-lysyl]-3-[(thiophen-2-ylmethyl)carbamoyl]piperazine-1-carboxylate]	8.1
COc1cc(CNC(=O)[C@@H]2CN(C(=O)Oc3ccc4ccccc4c3Cl)CCN2C(=O)[C@H](N)CCCCN(C)C)ccc1CN [Example 89, 1-chloronaphthalen-2-yl (3S)-3-{[4-(aminomethyl)-3-methoxybenzyl]carbamoyl}-4-(N^6,N^6-dimethyl-D-lysyl)piperazine-1-carboxylate]	1.7
Cc1ccc(OC(=O)N2CCN(C(=O)[C@@H](CCCCNC(C)C)NC3CCC4(CC3)CCN(Cc3ccccc3)C4)[C@H](C(=O)NCc3cccs3)C2)c(Cl)c1C (stereo partly drawn) [Example 105, 2-chloro-3,4-dimethylphenyl (3S)-4-[N^2-(2-benzyl-2-azaspiro[4.5]dec-8-yl)-N^6-(1-methylethyl)-D-lysyl]-3-[(thiophen-2-ylmethyl)carbamoyl]piperazine-1-carboxylate]	0.5
CS(=O)(=O)NCCCC[C@@H](NC1CCC2(CC1)CCN(Cc1ccccc1)C2)C(=O)N1CCN(C(=O)Oc2cccc3c2CCNC3)C[C@H]1C(=O)NCc1cccs1 (stereo partly drawn) [Example 81, 1,2,3,4-tetrahydroisoquinolin-5-yl (3S)-4-[N^2-(2-benzyl-2-azaspiro[4.5]dec-8-yl)-N^6-(methylsulfonyl)-D-lysyl]-3-[(thiophen-2-ylmethyl)carbamoyl]piperazine-1-carboxylate]	3.4
NCc1ccc(OC(=O)N2CCN(C(=O)[C@@H](CC3CCCCC3)NC3CCC4(CC3)CCN(Cc3ccccc3)C4)[C@H](C(=O)NCc3cccs3)C2)c2ccccc12 (stereo partly drawn) [Example 59, 4-(aminomethyl)naphthalen-1-yl (3S)-4-[N-(2-benzyl-2-azaspiro[4.5]dec-8-yl)-3-cyclohexyl-D-alanyl]-3-[(thiophen-2-ylmethyl)carbamoyl]piperazine-1-carboxylate]	4.6
Cc1ccc(OC(=O)N2CCN(C(=O)[C@@H](CCCCNC(C)C)NC(C)C)[C@H](C(=O)NCc3cccs3)C2)c(Cl)c1C [Example 103, 2-chloro-3,4-dimethylphenyl (3S)-4-[N^2,N^6-bis(1-methylethyl)-D-lysyl]-3-[(thiophen-2-ylmethyl)carbamoyl]piperazine-1-carboxylate]	1.4
O=C(NCc1cccs1)[C@@H]1CN(C(=O)Oc2ccccc2Cl)CCN1C(=O)[C@@H](CCCCN1CCOCC1)NC1CCC2(CC1)CCN(Cc1ccccc1)C2 (stereo partly drawn) [Example 95, 2-chlorophenyl (3S)-4-[N-(2-benzyl-2-azaspiro[4.5]dec-8-yl)-6-morpholin-4-yl-D-norleucyl]-3-[(thiophen-2-ylmethyl)carbamoyl]piperazine-1-carboxylate]	1.8
